Like-named read-outs stand apart in the source and are kept apart here.
Experiments:
NSCLC cancer patients [1] = test: Response of NSCLC patients to TARCEVA therapy by 5B7/3C6 category (Example 7); format: in vivo, human; settings: 150 mg/day orally
Experimental: (§1) Tissue arrays containing biopsy samples from at least 100 NSCLC cancer patients are obtained. Each patient is treated with TARCEVA™ (EGFR inhibitor) therapy with a dosage of 150 mg/day given orally. Each patient has post-therapy follow-up for up to 5 years. Each biopsy sample is fixed in 10% NBF and paraffin embedded. Five (5) micron sections of each biopsy sample are cut and arrayed on positively charged glass slides. The slides are stained with an RD-binding molecule (e.g., clone 5B7) and an ED-binding molecule (e.g., clone 3C6) according to the protocols in Example 2. The resulting stained array slides are scored by light microscopy by a pathologist according to the following criteria:
(§2) The score for each case is recorded in a database comparing the score for each binding molecule (e.g., 5B7 or 3C6). Approximately 65% of cases are expected to fall into category 1, 19% in category 2, <1% in category 3 and 15% in category 4. Patient outcome is directly related to the scoring category as indicated in Table 2 for an ID-based therapy.

NSCLC cancer patients [2] = test: Response of NSCLC patients to IRESSA therapy by 5B7/3C6 category (Example 6); format: in vivo, human; settings: 250 mg/day orally
Experimental: as §1, with “IRESSA™ (EGFR-inhibitor)” for “TARCEVA™ (EGFR inhibitor)”, “250” for “150”
as §2

HCC cancer patients = test: Response of HCC patients to IRESSA therapy by 5B7/3C6 category (Example 11); format: in vivo, human; settings: 200-500 mg/day orally
Experimental: Tissue arrays containing biopsy samples from at least 100 HCC cancer patients are obtained (see, for example, samples collected in JS 0414, “A Pilot Study of Adjuvant Therapy of Gefitinib (Iressa, ZD1839) in Patients with Resectable Hepatocellular Carcinoma”, ClinicalTrials.gov Identifier No. NCT00228501). Each patient is treated with IRESSA™ (EGFR-inhibitor) therapy with a dosage of 200-500 mg/day given orally. Each patient has post-therapy follow-up for at least 12 months. Each biopsy sample is fixed in a standard fixative (e.g., 10% NBF) and paraffin embedded. Sections of each biopsy sample (e.g., 5 μm thick) are cut and arrayed on positively charged glass slides. The slides are stained with an RD-binding molecule (e.g., clone 5B7) and an ED-binding molecule (e.g., clone 3C6) according to the protocols in Example 2. The resulting stained array slides are scored by light microscopy by a pathologist according to the following criteria:
as §2, with “60%” for “65%”, “13%” for “19%”, “5%” for “<1%”, “22%” for “15%”

[3] = tested on: non-small cell lung cancer; settings: cited from earlier work
breast cancer patients = test: Response of breast cancer patients to lapatinib therapy by 5B7/3C6 category (Example 10); format: in vivo, human; settings: 1250-1500 mg/day orally
Experimental: Tissue arrays containing biopsy samples from at least 100 breast cancer patients are obtained. Each patient is treated with lapatinib (TYKERB™) (HER1 (EGFR)/HER2-inhibitor) with a dosage of 1250-1500 mg/day given orally. Each patient has post-therapy follow-up for at least 20 months. Each biopsy sample is fixed in a standard fixative and paraffin embedded. Sections of each biopsy sample (e.g., 5 μm thick) are cut and arrayed on positively charged glass slides. The slides are stained with an RD-binding molecule (e.g., clone 5B7) and an ED-binding molecule (e.g., clone 3C6) according to the protocols in Example 2. The resulting stained array slides are scored by light microscopy by a pathologist according to the following criteria:
as §2, with “20%” for “65%”, “16%” for “19%”, “3%” for “<1%”, “61%” for “15%”

clone 5B7 = test: Peptide inhibition study (epitope mapping) on EGFR-positive lung squamous cell carcinoma; format: binding; settings: 1000-fold molar excess of peptide, pre-incubated 1 hour at room temperature
Excerpt: The epitope for the EGFR regulatory-domain-specific monoclonal antibody, clone 5B7, was mapped by peptide inhibition studies. Because the L2G Peptide was used as the immunogen and was used to screen for positive clones, it was known that the 5B7 epitope must be within that 19-amino acid sequence (see SEQ ID NO: 2). The L2G Peptide, a peptide containing the 13 C-terminal amino acid residues of the L2G Peptide, and a peptide containing the six N-terminal amino acid residues of the L2G Peptide plus three additional N-terminal residues (i.e., QIS) corresponding to the respective positions in the human EGFR sequence. The peptides were synthesized by Genemed Synthesis, Inc. (South San Francisco, Calif.).
A known EGFR-positive lung squamous cell carcinoma was chosen for the peptide inhibition study. The 5B7 antibody was pre-incubated with each peptide for 1 hour at room temperature before application to the tissue. A 1000-fold molar excess of peptide compared to antibody was used.

[4] = NSCLC patients in categories 1 and 3
[5] = NSCLC patients in categories 2 and 4

Compound: C#Cc1cccc(Nc2ncnc3cc(OCCOC)c(OCCOC)cc23)c1 [erlotinib]
- patient response to therapy (NSCLC cancer patients [1]; [4]): objective response
- patient response to therapy (NSCLC cancer patients [1]; [5]): not significantly respond

Compound: COc1cc2ncnc(Nc3ccc(F)c(Cl)c3)c2cc1OCCCN1CCOCC1 [gefitinib]
- patient response to therapy (NSCLC cancer patients [2]; [4]): objective response
- patient response to therapy (NSCLC cancer patients [2]; [5]): not significantly respond
- patient response to therapy (HCC cancer patients; HCC patients in categories 1 and 3): objective response
- patient response to therapy (HCC cancer patients; HCC patients in categories 2 and 4): not significantly respond
- NSCLC patients who responded to the drug ([3]; 250 gefitinib per day): about 10%
- NSCLC patients who responded to the drug ([3]; 500 gefitinib per day): about 20%

Compound: CS(=O)(=O)CCNCc1ccc(-c2ccc3ncnc(Nc4ccc(OCc5cccc(F)c5)c(Cl)c4)c3c2)o1 [lapatinib]
- patient response to therapy (breast cancer patients; breast cancer patients in categories 1 and 3): objective response
- patient response to therapy (breast cancer patients; breast cancer patients in categories 2 and 4): not significantly respond

Compound: LDNPDYQQDFFPKEAKPNG (listed as Homo sapiens) [Peptide 3]
- inhibition of 5B7 binding to tissue (clone 5B7): completely inhibited

Compound: Peptide 1: amino acids 1164-1175 of SEQ ID NO: 1 (QISLDNPDYQQD; listed as Homo sapiens)
- inhibition of 5B7 binding to tissue (clone 5B7): partial inhibition

Compound: Peptide 2: amino acids 7-19 of SEQ ID NO: 2; 13 C-terminal amino acid residues of the L2G Peptide (QQDFFPKEAKPNG; listed as Homo sapiens)
- inhibition of 5B7 binding to tissue (clone 5B7): complete inhibition

Reference: patent publication US8329421B2, “Methods of predicting response of a neoplasm to an EGFR inhibitor and detecting interactions between EGFR and an EGFR regulatory protein” (Ventana Medical Systems, Inc., priority 2007, dated 2012)
